These results are taken from patent EP2257297B1, “COMPOUNDS FOR USE IN THE TREATMENT OF ACNE, SEBORRHOEA AND SEBHORROEIC DERMATITIS, OR FOR REDUCING SEBUM SECRETION” (priority 2008, dated 2009).

Structures are written as SMILES.

What all share (details): Table 6, hMCR binding selectivity
For assay [1], the target named is human MC1R. The assay can be described thus: Human MC1R radioligand binding assay ([125I] NDP-MSH). How it is done: (§1) Radioligand binding assays were carried out using commercial or in-house prepared hMC1 R, hMC3R and hMC4R membranes and [^125I]
(§2) In-house plasma membranes were prepared from transfected mammalian cells (prepared as in Example 109, using plasmid DNA containing the human MC1 R, MC3R or MC4R gene or other gene of interest in a plasmid vector with a mammalian origin of replication): • Adherent cells were washed with warm Hanks buffered saline solution (HBSS). 1 mL of cold HBSS was added to each flask and the cells were scraped off with a rubber policeman. The scraped cells were added to a 50 mL tube on ice. The plates were then rinsed twice with 5 mL cold HBSS and this was also added to the tube. The cells were centrifuged at 1000 x g for 5 mins in a bench top centrifuge and the supernatant was decanted. The remaining cell pellet was resuspended in 0.25 M sucrose. The cell suspension was centrifuged again as previously and the pellet resuspended in 5 mL of 0.25 M sucrose containing protease inhibitors. The cells were homogenised by a 10 second pulse with an Ika disperser followed by 30 seconds on ice. The homogenisation and ice incubation was repeated three times. The mixture was then centrifuged at 1260 x g for 5 mins. […]

For assay [2], the target named is human MC3R. The assay can be described thus: Human MC3R radioligand binding assay ([125I] NDP-MSH). How it is done:
as §1, §2

The target of assay [3] is human MC4R. The assay can be described thus: Human MC4R radioligand binding assay ([125I] NDP-MSH). As for the experimental part: as §1, §2

One may read the IC50 as the concentration needed to halve the response being measured. Read a high IC50 as weaker potency.

Turning to `O=C(/C=C/c1ccc(Cl)cc1)NC[C@@H]1CCN(CC(c2ccccc2)c2ccccc2)C(=O)[C@H](CCN2CCCCC2)N1` [Compound 33, (E)-3-(4-chlorophenyl)-N-(((3S,5S)-1-(2,2-diphenylethyl)-2-oxo-3-(2-(piperidin-1-yl)ethyl)-1,4-diazepan-5-yl)methyl)acrylamide], the IC50 was found to be 2.85 µM in assay [1], 1.5 µM in assay [2] and 6.06 µM in assay [3].
Regarding `N=C(N)NCCC[C@@H]1N[C@H](CNC(=O)c2ccc3ccccc3c2)CCN(CC(c2ccccc2)c2ccccc2)C1=O` [Compound 105, N-(((3S,5S)-1-(2,2-diphenylethyl)-3-(3-guanidinopropyl)-2-oxo-1,4-diazepan-5-yl)methyl)-2-naphthamide], the IC50 in assay [1] is 6.66 µM; in assay [3], 3.28 µM.
As to `CCC(CC)CN1CC[C@@H](CNC(=O)/C=C/c2ccc(Cl)cc2)N[C@@H](CCN2CCCCC2)C1=O` [Compound 348, (E)-3-(4-chlorophenyl)-N-(((3S,5S)-1-(2-ethylbutyl)-2-oxo-3-(2-(piperidin-1-yl)ethyl)-1,4-diazepan-5-yl)methyl)acrylamide], the IC50 in assay [2] was found to be 1.83 µM.
